Values quoted from earlier work in patent US7390922B2, “Phenolic acid salts of gabapentin in liquid and/or semi-solid dosage forms and methods of use” (Kiel Laboratories, Inc., priority 2003, dated 2008).

Legend:
[1] = target: gb1a-gb^2 heterodimer and post-synaptic GABAB receptor (Homo sapiens, UniProt Q9UBS5)
[2] = in water and across a wide range of pH

gb1a-gb^2 heterodimer and post-synaptic GABAB receptor, sequence (Q9UBS5 15-961 limits assumed): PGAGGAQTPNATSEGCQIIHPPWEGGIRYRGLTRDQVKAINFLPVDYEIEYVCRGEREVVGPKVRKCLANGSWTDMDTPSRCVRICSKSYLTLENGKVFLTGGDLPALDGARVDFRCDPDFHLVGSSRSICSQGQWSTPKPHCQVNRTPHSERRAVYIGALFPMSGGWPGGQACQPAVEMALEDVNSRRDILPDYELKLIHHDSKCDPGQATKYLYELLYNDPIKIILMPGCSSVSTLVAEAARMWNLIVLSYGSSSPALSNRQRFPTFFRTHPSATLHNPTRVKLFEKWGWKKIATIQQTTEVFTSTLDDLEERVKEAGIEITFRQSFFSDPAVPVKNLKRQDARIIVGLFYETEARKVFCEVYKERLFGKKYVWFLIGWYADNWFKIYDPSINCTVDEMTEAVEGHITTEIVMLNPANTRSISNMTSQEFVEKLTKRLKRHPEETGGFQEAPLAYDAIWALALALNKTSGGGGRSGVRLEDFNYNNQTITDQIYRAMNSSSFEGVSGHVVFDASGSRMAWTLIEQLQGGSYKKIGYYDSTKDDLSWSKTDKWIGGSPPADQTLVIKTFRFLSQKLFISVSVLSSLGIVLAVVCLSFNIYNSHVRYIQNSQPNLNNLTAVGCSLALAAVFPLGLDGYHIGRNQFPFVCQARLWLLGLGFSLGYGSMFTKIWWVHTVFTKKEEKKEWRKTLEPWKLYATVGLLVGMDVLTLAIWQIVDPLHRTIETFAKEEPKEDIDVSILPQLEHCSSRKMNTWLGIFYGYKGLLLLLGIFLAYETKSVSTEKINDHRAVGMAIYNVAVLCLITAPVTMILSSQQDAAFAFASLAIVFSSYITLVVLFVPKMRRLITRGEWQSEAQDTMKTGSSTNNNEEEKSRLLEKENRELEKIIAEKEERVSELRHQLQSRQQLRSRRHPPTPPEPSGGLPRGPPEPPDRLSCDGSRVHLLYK
gb1a-gb^2 heterodimer and post-synaptic GABAB receptor, sequence (O75899 42-941 partner): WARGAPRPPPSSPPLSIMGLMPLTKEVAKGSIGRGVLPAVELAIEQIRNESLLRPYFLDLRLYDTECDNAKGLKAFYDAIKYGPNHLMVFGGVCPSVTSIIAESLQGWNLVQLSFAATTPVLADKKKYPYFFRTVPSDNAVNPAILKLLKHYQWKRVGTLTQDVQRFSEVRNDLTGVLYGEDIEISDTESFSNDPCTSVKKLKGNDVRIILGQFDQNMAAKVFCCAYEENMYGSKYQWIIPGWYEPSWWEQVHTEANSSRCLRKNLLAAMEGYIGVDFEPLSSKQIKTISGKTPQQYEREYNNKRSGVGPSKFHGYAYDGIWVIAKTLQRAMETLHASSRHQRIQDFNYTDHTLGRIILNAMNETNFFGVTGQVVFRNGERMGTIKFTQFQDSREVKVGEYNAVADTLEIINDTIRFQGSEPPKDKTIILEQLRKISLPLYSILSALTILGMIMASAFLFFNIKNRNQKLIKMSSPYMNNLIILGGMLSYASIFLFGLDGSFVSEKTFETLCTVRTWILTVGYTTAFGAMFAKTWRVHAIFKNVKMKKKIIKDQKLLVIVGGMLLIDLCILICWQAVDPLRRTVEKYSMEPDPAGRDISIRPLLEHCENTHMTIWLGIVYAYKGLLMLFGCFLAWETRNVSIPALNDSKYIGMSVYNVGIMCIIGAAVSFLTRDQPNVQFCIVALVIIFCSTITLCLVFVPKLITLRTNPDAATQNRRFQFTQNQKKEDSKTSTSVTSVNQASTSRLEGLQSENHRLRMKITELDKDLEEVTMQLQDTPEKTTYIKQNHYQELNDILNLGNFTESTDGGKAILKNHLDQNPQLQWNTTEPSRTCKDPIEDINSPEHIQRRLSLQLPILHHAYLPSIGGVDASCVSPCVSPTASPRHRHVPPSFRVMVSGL

NCC1(CC(=O)O)CCCCC1 [gabapentin, l-(amino methyl) cyclohexaneacetic acid]
receptor activity [1]: selective agonist
solubility [2]: freely soluble in water
time of peak plasma gabapentin concentrations (adults, post-dose): 2 to 3 h
absolute bioavailability (after administration of 300 mg, dose-dependent): approximately 60%
metabolism (in vivo): is not metabolized
plasma protein binding (in vivo): does not bind to plasma proteins
route of elimination (in vivo): eliminated via glomerular filtration
blood-brain barrier passage (unlike GABA): able to cross the blood-brain barrier
